In the assay the test system is stool alkaline phosphatase (AP). Description: Stool alkaline phosphatase assay in presence of AP isoform inhibitors. To be noted: stool supernatant; for inhibition of the AP activity in the stool: inhibitor 10 mM, pNPP substrate.

Procedure: Homogenization of stool: The supernatant of a homogenized stool suspension was used for IAP assay. A small amount of stool (milligrams) was measured and then the ‘stool dilution buffer’ (10 mM (millimolar) Tris-HCl, pH 8.0, 1 mM magnesium chloride, 10 μM (micromolar) zinc chloride) at a defined ratio was added. Usually, 50 μl (microliter) of stool dilution buffer was added to 1 mg of stool. The sample was vigorously vortexed to prepare a homogenized stool suspension, which was then centrifuged at 10,000×g for 20 min, and the supernatant containing IAP was collected and assayed for IAP concentration.
Alkaline Phosphatase Assay. The stool supernatant was assayed for alkaline phosphatase (AP) following an established protocol using the automatic biochemistry analyzer mentioned above (Nanjing, Jiangsu, China). In brief, 20 of supernatant was added to 1 ml of enzyme assay buffer (1.25 M diethanolamine (DEA) buffer, pH 10.2, 0.6 mM magnesium chloride) containing 10 mM p-nitrophenyl phosphate (pNPP), and the reaction mixture was incubated for one min at 37° C. followed by measuring the AP concentration by the analyzer pre-calibrated with AP standards. To determine the major isoform among stool APs, prior to assaying for AP activity an aliquot of stool sample was treated for 10 min with L-phenylalanine (L-Phe, 10 mM final conc.), a specific inhibitor of LAP, and another aliquot with L-homoarginine (L-Arg, 10 final conc.), an inhibitor of tissue non-specific alkaline phosphatase (TNAP). Each aliquot treated with an inhibitor was then mixed with the reaction buffer containing an equal concentration (10 mM) of the respective inhibitor, and assayed for AP activity using the analyzer. […] All AP assays were performed by a single laboratory technologist who was blinded to the diagnoses of participants. […]
Stool samples of non-diabetic healthy controls and T2DM patients were homogenized in a stool dilution buffer followed by centrifuging and collection of supernatant. […] Statistics: Values are expressed as mean+/−SEM. […]

In the case of `N=C(N)NCCCC[C@H](N)C(=O)O` [L-Arg, L-homoarginine], for the setting “either group (healthy controls and T2DM patients)”, the “inhibitory effect on the stool AP activity” value is “no inhibitory effect”. Regarding `N[C@@H](Cc1ccccc1)C(=O)O` [L-Phe, L-phenylalanine], the “inhibition of the AP activity in the stool” value reads like this: (total diabetic (T2DM) population) “approx. 70%”; (total healthy population) “approx. 80%”.

Values taken from patent publication US10781470B2, “Diagnosis and treatment of incipient diabetes” (priority 2015, dated 2020).
